Reference: PubChem BioAssay AID330 (DTP/NCI, 2004)
Several values for one entry are separate records, joined by “and”; a condition that tells them apart may be missing. Equal entries are not always repeated. Inconclusive results and toxic doses are left out. How the source made its calls: active means survival T/C of 150% or more; inactive means T/C below 125% in these data.

Test system: P388 leukemia ip, CD2F1 mice, survival T/C
Assay: NCI In Vivo Anticancer Drug Screen. Data for tumor model P388 Leukemia (intraperitoneal) in CD2F1 (CDF1) mice
Details: endpoint: median survival time, higher = longer survival
Outline: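 Mice carrying the transplanted tumor received test compound or vehicle. Survival was recorded in each group, and the value is the treated-group measurement divided by that of the vehicle-treated control group.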

[1] = dose: 50.0 mg/kg/injection, schedule: Q01DX009 (ip), vehicle: saline
[2] = dose: 100.0 mg/kg/injection, schedule: Q01DX009 (ip), vehicle: saline
[3] = dose: 200.0 mg/kg/injection, schedule: Q01DX009 (ip), vehicle: saline
[4] = dose: 50.0 mg/kg/injection, schedule: Q01DX005 (ip), vehicle: Klucel (hydroxypropylcellulose) (HPC)
[5] = dose: 100.0 mg/kg/injection, schedule: Q01DX005 (ip), vehicle: Klucel (hydroxypropylcellulose) (HPC)
[6] = dose: 200.0 mg/kg/injection, schedule: Q01DX005 (ip), vehicle: Klucel (hydroxypropylcellulose) (HPC)
[7] = dose: 30.0 mg/kg/injection, schedule: Q01DX005 (ip), vehicle: saline with Tween-80
[8] = dose: 60.0 mg/kg/injection, schedule: Q01DX005 (ip), vehicle: saline with Tween-80
[9] = dose: 120.0 mg/kg/injection, schedule: Q01DX005 (ip), vehicle: saline with Tween-80
[10] = dose: 240.0 mg/kg/injection, schedule: Q01DX005 (ip), vehicle: saline with Tween-80
[11] = dose: 12.5 mg/kg/injection, schedule: Q01DX005 (ip), vehicle: Klucel (hydroxypropylcellulose) (HPC)
[12] = dose: 25.0 mg/kg/injection, schedule: Q01DX005 (ip), vehicle: Klucel (hydroxypropylcellulose) (HPC)
[13] = dose: 50.0 mg/kg/injection, schedule: Q01DX009 (ip), vehicle: Klucel (hydroxypropylcellulose) (HPC)
[14] = dose: 100.0 mg/kg/injection, schedule: Q01DX009 (ip), vehicle: Klucel (hydroxypropylcellulose) (HPC)
[15] = dose: 200.0 mg/kg/injection, schedule: Q01DX009 (ip), vehicle: Klucel (hydroxypropylcellulose) (HPC)
[16] = dose: 60.0 mg/kg/injection, schedule: Q01DX005 (ip), vehicle: Klucel (hydroxypropylcellulose) (HPC)
[17] = dose: 120.0 mg/kg/injection, schedule: Q01DX005 (ip), vehicle: Klucel (hydroxypropylcellulose) (HPC)
[18] = dose: 240.0 mg/kg/injection, schedule: Q01DX005 (ip), vehicle: Klucel (hydroxypropylcellulose) (HPC)
[19] = dose: 100.0 mg/kg/injection, schedule: Q04DX003 (ip), vehicle: saline with Tween-80
[20] = dose: 200.0 mg/kg/injection, schedule: Q04DX003 (ip), vehicle: saline with Tween-80
[21] = dose: 400.0 mg/kg/injection, schedule: Q04DX003 (ip), vehicle: saline with Tween-80
[22] = dose: 50.0 mg/kg/injection, schedule: Q01DX009 (ip), vehicle: saline with Tween-80
[23] = dose: 100.0 mg/kg/injection, schedule: Q01DX009 (ip), vehicle: saline with Tween-80
[24] = dose: 200.0 mg/kg/injection, schedule: Q01DX009 (ip), vehicle: saline with Tween-80

Measured: T/C

CCCCS(=N)(=O)CCC(N)P(=O)(O)O (centres undefined)
inactive: dose: 50.0 mg/kg/injection, schedule: Q01DX005 (ip), vehicle: saline 93 % of control | dose: 100.0 mg/kg/injection, schedule: Q01DX005 (ip), vehicle: saline 100 % of control | dose: 200.0 mg/kg/injection, schedule: Q01DX005 (ip), vehicle: saline 95 % of control

N#CCCSc1ccccc1N=Cc1ccccc1O
inactive: [1] 101 % of control | [2] 99 % of control | [3] 95 % of control

CC(=O)NCC[N+](C)(C)C
inactive: dose: 12.5 mg/kg/injection, schedule: Q01DX009 (ip), vehicle: saline 100 % of control | dose: 25.0 mg/kg/injection, schedule: Q01DX009 (ip), vehicle: saline 108 % of control | [1] 99 % of control

O=C(N/N=C/C(O)C1OC(=O)C(O)C1O)c1ccncc1 (centres undefined)
inactive: [4] 105 % of control | [5] 101 % of control | [6] 99 % of control

CN1c2cccc[c]2[Sn]([CH3])([CH3])[c]2ccccc21
inactive: [7] 115 % of control | [8] 113 % of control and 123 % of control | [9] 124 % of control

Cc1ccc(S(=O)(=O)NC(=O)N2CCc3ccccc32)cc1
inactive: [4] 105 % of control | [5] 105 % of control | [6] 93 % of control

Cc1c2ccncc2c(CNC(=O)CCC(=O)NCc2c3cnccc3c(C)c3c2c2ccccc2n3C)c2c3ccccc3n(C)c12
inactive: dose: 6.25 mg/kg/injection, schedule: Q04DX002 (ip), vehicle: saline with Tween-80 108 % of control | dose: 12.5 mg/kg/injection, schedule: Q04DX002 (ip), vehicle: saline with Tween-80 103 % of control | dose: 25.0 mg/kg/injection, schedule: Q04DX002 (ip), vehicle: saline with Tween-80 102 % of control | dose: 50.0 mg/kg/injection, schedule: Q04DX002 (ip), vehicle: saline with Tween-80 102 % of control

OC1(C(F)(F)F)NN2C=CC=CC2=NO1 (centres undefined)
inactive: [8] 95 % of control | [9] 96 % of control | [10] 100 % of control

CCCCCCC1N=C(N)N=C(N)N1c1cccc(Cl)c1 (centres undefined)
inactive: [11] 118 % of control | [12] 114 % of control

CC(=O)Nc1nc(Cl)c2[nH]cnc2n1
inactive: [12] 98 % of control | [4] 98 % of control | [5] 102 % of control | [6] 112 % of control

Cc1ccc(S(=O)(=O)N2OC2c2ccccc2C)cc1 (centres undefined)
inactive: [13] 107 % of control | [14] 106 % of control | [15] 103 % of control

COc1ccc(N=N/N=c2\sc3cc(OC)ccc3n2C)cc1
inactive: dose: 7.5 mg/kg/injection, schedule: Q01DX005 (ip), vehicle: saline with Tween-80 113 % of control | dose: 15.0 mg/kg/injection, schedule: Q01DX005 (ip), vehicle: saline with Tween-80 104 % of control | [7] 112 % of control and 117 % of control | [8] 104 % of control

OC(C(Br)CBr)C(O)C(Br)CBr (centres undefined)
inactive: [13] 105 % of control | [14] 110 % of control | [15] 112 % of control

COC(=O)C1=C(C)NC(C)=C(C(=O)OC)C1c1ccc(NC(C)=O)cc1
inactive: [8] 113 % of control | [9] 111 % of control | [10] 113 % of control

COc1ccc(C(=O)C(=O)c2ccc(OC)cc2)cc1
inactive: [16] 99 % of control | [17] 98 % of control | [18] 100 % of control

NC(=S)N/N=C/c1cccc(CC(O)(C(F)(F)F)C(F)(F)F)n1
inactive: dose: 12.5 mg/kg/injection, schedule: Q04DX003 (ip), vehicle: saline with Tween-80 100 % of control | dose: 25.0 mg/kg/injection, schedule: Q04DX003 (ip), vehicle: saline with Tween-80 87 % of control

O=c1ccnc(Sc2ncccc2[N+](=O)[O-])[nH]1
inactive: [19] 100 % of control | [20] 100 % of control | [21] 100 % of control

CC(C)(C)N=C(CCSc1ccccc1)Nc1c(Cl)cccc1Cl
inactive: [22] 100 % of control | [23] 105 % of control | [24] 96 % of control

CC(C)(C)c1ccnc(N=C2N=C(Nc3cc(C(C)(C)C)ccn3)c3ccccc32)c1
inactive: [22] 89 % of control | [23] 89 % of control

COc1cc(-c2ccc(Nc3ccccc3C(=O)O)c(OC)c2)ccc1Nc1ccccc1C(=O)O
inactive: [1] 105 % of control | [2] 100 % of control and 104 % of control and 109 % of control | [3] 110 % of control | dose: 400.0 mg/kg/injection, schedule: Q01DX009 (ip), vehicle: saline 117 % of control and 124 % of control and 86 % of control

O=c1c2cnc(-c3ccccc3)nc2oc2ccc3ccccc3c12
inactive: dose: 12.5 mg/kg/injection, schedule: Q01DX009 (ip), vehicle: saline with Tween-80 97 % of control | dose: 25.0 mg/kg/injection, schedule: Q01DX009 (ip), vehicle: saline with Tween-80 96 % of control | [22] 87 % of control and 92 % of control | [23] 90 % of control

CCCCCCCCCCCC1CCCC(C)N1 (centres undefined)
inactive: [11] 104 % of control | [12] 100 % of control | [4] 101 % of control

CC(C)(C)OC(=O)N1CCCC1C(=O)O (centres undefined)
inactive: [4] 100 % of control | [5] 106 % of control | [6] 99 % of control

O=C(O)/C=C/C(=O)NCc1ccco1
inactive: [23] 100 % of control | [19] 90 % of control | [24] 109 % of control | [20] 95 % of control | dose: 400.0 mg/kg/injection, schedule: Q01DX009 (ip), vehicle: saline with Tween-80 100 % of control | [21] 100 % of control

C[n+]1ccc(NN)cc1
inactive: [4] 100 % of control | [5] 103 % of control | [6] 101 % of control

O=C(OCC1OC(C2N(c3ccccc3)CCN2c2ccccc2)C(OC(=O)c2ccccc2)C1OC(=O)c1ccccc1)c1ccccc1 (centres undefined)
inactive: dose: 12.5 mg/kg/injection, schedule: Q01DX009 (ip), vehicle: distilled water + Tween-80 102 % of control | dose: 25.0 mg/kg/injection, schedule: Q01DX009 (ip), vehicle: distilled water + Tween-80 102 % of control | dose: 50.0 mg/kg/injection, schedule: Q01DX009 (ip), vehicle: distilled water + Tween-80 94 % of control | dose: 100.0 mg/kg/injection, schedule: Q01DX009 (ip), vehicle: distilled water + Tween-80 102 % of control | dose: 200.0 mg/kg/injection, schedule: Q01DX009 (ip), vehicle: distilled water + Tween-80 93 % of control

Cc1nc(C(=O)c2ccccc2)cnc1-c1ccccc1
inactive: [16] 92 % of control | [17] 88 % of control | [18] 91 % of control

Cc1cc(=O)n(C)c2ccc(N)cc12
inactive: dose: 25.0 mg/kg/injection, schedule: Q01DX009 (ip), vehicle: Klucel (hydroxypropylcellulose) (HPC) 101 % of control | [13] 100 % of control | [14] 101 % of control

CC(=O)Nc1ccccc1OC(=O)NC(C)(C)C
inactive: [8] 97 % of control | [9] 100 % of control | [10] 90 % of control

COc1ccc2nc(C)c3c(c2c1)C(=O)N(CCC[N+]1([O-])CC[N+]([O-])(CCCN2C(=O)c4c(c5cc(OC)ccc5[n+]([O-])c4C)C2=O)CC1)C3=O (centres undefined)
inactive: [8] 87 % of control | [9] 89 % of control | [10] 92 % of control

O=C(/C=C/c1ccc(Cl)c(Cl)c1)C1CCCCC1
inactive: [13] 103 % of control | [14] 99 % of control

CSc1nc(N)c(NS(=O)(=O)c2ccccc2[N+](=O)[O-])c(=O)[nH]1
inactive: [4] 100 % of control | [5] 90 % of control | [6] 90 % of control

CCC1COC(Nc2cccc3c2CCCC3)=N1 (centres undefined)
inactive: dose: 100.0 mg/kg/injection, schedule: Q01DX001 (ip), vehicle: saline with Tween-80 95 % of control | dose: 200.0 mg/kg/injection, schedule: Q01DX001 (ip), vehicle: saline with Tween-80 90 % of control

O=C1/C(=C/C=C/c2ccccc2)C(=S)SN1Cc1ccco1
inactive: [13] 96 % of control | [14] 97 % of control

COc1cc2c(cc1OC)C1CC(=O)C(Cc3ccccc3)CN1CC2 (centres undefined)
inactive: [13] 101 % of control | [14] 87 % of control and 95 % of control | [15] 95 % of control and 104 % of control
